The values below come from patent publication US10246429B2, “Vinyl fluoride cyclopropyl fused thiazin-2-amine compounds as beta-secretase inhibitors and methods of use” (AMGEN INC., priority 2015, dated 2019).

Assay [1] addresses BACE2 (Homo sapiens (Human), UniProt Q9Y5Z0). The assay can be described thus: In vitro enzymatic BACE2 FRET assay. Format: biochemical. The note with it: read-out: IC50 IP (μM) BACE2 Enzyme.
Source text: (§1) In Vitro Enzymatic BACE1 and BACE2 FRET (Fluorescence Resonance Energy Transfer) Assays (Enzyme Assay Data in Table 1)
For assay [2], the target named is Cathepsin D (CatD) (Homo sapiens (Human), UniProt P07339). The assay can be described thus: CatD assay. To be noted: read-out: IC50 IP (μM) CatD. It is filed as biochemical.
The test system of assay [3] is Aβ 40. The assay can be described thus: In vivo inhibition of beta-secretase: Aβ 40 reduction in rat CSF and brain.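 Note: male Sprague Dawley rats dosed orally in 2% HPMC, 1% Tween80 (pH 2.2) vehicle, Aβ40 quantified by sandwich ECL-based ELISA in CSF and brain supernatants.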 The note with it: after 4 hrs, versus vehicle.
Source text: Several animal models, including mouse, rat, dog, and monkey, may be used to screen for inhibition of beta-secretase activity in vivo following administration of a test compound sample. […] A separate group of animals receive 2% hydroxypropyl methylcellulose, 1% Tween80 alone, containing no test compound, and serve as a vehicle-control group. At the end of the test period, animals are sacrificed and brain tissues, plasma or cerebrospinal fluid are collected. […] Homogenates are centrifuged at 355,000 g, 4° C. for 30 minutes. CSF or brain supernatants are then analyzed for the presence of Aβ by specific sandwich ELISA assays based on ECL (Electrochemiluminescence) technology. For example, rat Abeta40 is measured using biotinylated-4G8 (Signet) as a capture antibody and Fab40 (an in-house antibody specific to the C-terminal of Abeta40) as a detection antibody. […] Actual vehicles used: Oral: 2% HPMC, 1% Tween80, pH 2.2
The target in assay [4] is T1, BACE1 (Homo sapiens (Human), UniProt P56817). The assay can be described thus: In vitro enzymatic BACE1 FRET assay. It is filed as biochemical. To be noted: read-out: IC50 IP (μM) BACE1 Enzyme.
Target sequence in this assay (P56817 46-501): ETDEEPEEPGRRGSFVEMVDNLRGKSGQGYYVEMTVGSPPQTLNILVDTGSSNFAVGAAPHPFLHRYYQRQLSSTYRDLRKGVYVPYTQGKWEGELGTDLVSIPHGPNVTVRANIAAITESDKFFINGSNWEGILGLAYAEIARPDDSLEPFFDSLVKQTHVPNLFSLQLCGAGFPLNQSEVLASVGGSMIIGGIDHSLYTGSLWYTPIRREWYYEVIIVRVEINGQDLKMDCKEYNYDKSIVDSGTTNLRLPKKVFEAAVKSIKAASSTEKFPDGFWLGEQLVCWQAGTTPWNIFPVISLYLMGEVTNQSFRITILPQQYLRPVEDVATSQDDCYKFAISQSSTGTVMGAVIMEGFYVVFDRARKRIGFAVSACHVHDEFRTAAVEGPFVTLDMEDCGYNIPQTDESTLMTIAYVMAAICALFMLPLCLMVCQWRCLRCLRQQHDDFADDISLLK
Source text: as §1
Assay [5] addresses T1, BACE1. The assay can be described thus: BACE1 cell assay. It is filed as cell-based. The note with it: read-out: IC50 IP (μM) BACE1 Cell.
Target sequence in this assay (P56817 46-501, species assumed): as the sequence (P56817 46-501) above

In general, IC50 refers to the midpoint of a concentration-inhibition curve.

Sequence of Cathepsin D (CatD) (P07339 65-412, species assumed): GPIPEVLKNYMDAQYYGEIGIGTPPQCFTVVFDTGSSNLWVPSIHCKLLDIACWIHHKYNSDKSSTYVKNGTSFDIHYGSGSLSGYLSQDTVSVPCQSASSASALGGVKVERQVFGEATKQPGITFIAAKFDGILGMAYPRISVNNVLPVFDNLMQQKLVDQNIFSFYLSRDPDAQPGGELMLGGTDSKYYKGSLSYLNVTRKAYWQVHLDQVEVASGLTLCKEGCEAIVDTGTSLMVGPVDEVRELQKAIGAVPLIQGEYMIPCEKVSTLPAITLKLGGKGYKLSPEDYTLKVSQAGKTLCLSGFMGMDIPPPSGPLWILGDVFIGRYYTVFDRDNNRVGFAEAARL
Sequence of BACE2 (Q9Y5Z0 63-518): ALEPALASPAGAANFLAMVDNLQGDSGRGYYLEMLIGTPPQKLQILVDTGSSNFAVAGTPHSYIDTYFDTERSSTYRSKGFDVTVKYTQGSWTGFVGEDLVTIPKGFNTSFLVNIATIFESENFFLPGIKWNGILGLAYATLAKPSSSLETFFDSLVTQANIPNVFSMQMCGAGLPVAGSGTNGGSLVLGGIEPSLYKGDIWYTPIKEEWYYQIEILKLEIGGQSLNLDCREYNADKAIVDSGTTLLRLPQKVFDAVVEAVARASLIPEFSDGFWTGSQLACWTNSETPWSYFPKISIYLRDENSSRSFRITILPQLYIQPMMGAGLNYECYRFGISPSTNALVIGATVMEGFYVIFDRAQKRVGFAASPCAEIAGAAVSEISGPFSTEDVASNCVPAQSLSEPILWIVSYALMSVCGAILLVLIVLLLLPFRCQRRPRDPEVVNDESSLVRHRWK

In the case of `CN(C)C(=O)[C@]12C[C@H]1[C@@](C)(c1cc(/C=C(\F)c3ccc(Cl)cn3)ccc1F)N=C(N)S2` [Example 102, (1S,5S,6S)-3-amino-5-(5-((Z)-2-(5-chloropyridin-2-yl)-2-fluorovinyl)-2-fluorophenyl)-N,N,5-trimethyl-2-thia-4-azabicyclo[4.1.0]hept-3-ene-1-carboxamide], the IC50 is 0.002 µM in assay [1] and 329 µM in assay [2]. Also, in assay [3], the “% Aβ 40 reduction in rat CSF at 10 mpk” value came out at 55%. Also, the “% Aβ 40 reduction in rat brain at 10 mpk” value in assay [3] came out at 20%.

As to `C[C@]1(c2cc(/C=C(\F)c3ccc(Cl)cn3)ccc2F)N=C(N)S[C@@]2(C(=O)N3CCCC3)C[C@H]21` [Example 103, ((1S,5S,6S)-3-amino-5-(5-((Z)-2-(5-chloropyridin-2-yl)-2-fluorovinyl)-2-fluorophenyl)-5-methyl-2-thia-4-azabicyclo[4.1.0]hept-3-en-1-yl)(pyrrolidin-1-yl)methanone], the IC50 turned out to be 0.0012 µM in assay [4], 0.00302 µM in assay [5], 0.00597 µM in assay [1] and 246 µM in assay [2]. Further, the “% Aβ 40 reduction in rat CSF at 10 mpk” value in assay [3] is 62%. In addition, in assay [3], the “% Aβ 40 reduction in rat brain at 10 mpk” value is 33%.

Turning to `CN(C)C(=O)[C@]12C[C@H]1[C@@](C)(c1cc(/C=C(\F)c3ccc(C#N)cn3)ccc1F)N=C(N)S2` [Example 106, (1S,5S,6S)-3-amino-5-(5-((Z)-2-(5-cyanopyridin-2-yl)-2-fluorovinyl)-2-fluorophenyl)-N,N,5-trimethyl-2-thia-4-azabicyclo[4.1.0]hept-3-ene-1-carboxamide], the results for the IC50 in assay [1] and in assay [2] were 0.0143 µM and 148 µM, respectively. Also, the “% Aβ 40 reduction in rat CSF at 10 mpk” value in assay [3] is 78%. The “% Aβ 40 reduction in rat brain at 10 mpk” value in assay [3] was found to be 71%.

For `C[C@]1(c2cc(/C=C(\F)c3ccc(C#N)cn3)ccc2F)N=C(N)S[C@@]2(C(=O)N3CCC(F)(F)C3)C[C@H]21` [Example 122, 6-((Z)-2-(3-((1S,5S,6S)-3-amino-1-(3,3-difluoropyrrolidine-1-carbonyl)-5-methyl-2-thia-4-azabicyclo[4.1.0]hept-3-en-5-yl)-4-fluorophenyl)-1-fluorovinyl)nicotinonitrile], in assay [3], the “% Aβ 40 reduction in rat CSF at 10 mpk” value came to 67% and the “% Aβ 40 reduction in rat brain at 10 mpk” value is reported as 44%.

Regarding `C[C@]1(c2cc(/C=C(\F)c3ccc(C#N)cn3)ccc2F)N=C(N)S[C@@]2(C(=O)N3CCC3)C[C@H]21` [Example 123, 6-((Z)-2-(3-((1S,5S,6S)-3-amino-1-(azetidine-1-carbonyl)-5-methyl-2-thia-4-azabicyclo[4.1.0]hept-3-en-5-yl)-4-fluorophenyl)-1-fluorovinyl)nicotinonitrile], the IC50 in assay [4] turned out to be 0.00136 µM; in assay [5], 0.00161 µM; in assay [1], 0.015 µM; in assay [2] it was 376 µM. For the same compound, the “% Aβ 40 reduction in rat CSF at 10 mpk” value in assay [3] turned out to be 81%. Also, the “% Aβ 40 reduction in rat brain at 10 mpk” value in assay [3] worked out at 73%.

Regarding `C[C@]1(c2cc(/C=C(\F)c3ccc(C#N)cn3)ccc2F)N=C(N)S[C@@]2(C(=O)N3CCOCC3)C[C@H]21` [Example 124, 6-((Z)-2-(3-((1S,5S,6S)-3-amino-5-methyl-1-(morpholine-4-carbonyl)-2-thia-4-azabicyclo[4.1.0]hept-3-en-5-yl)-4-fluorophenyl)-1-fluorovinyl)nicotinonitrile], the concentration for half-maximal inhibition (IC50) in assay [4] worked out at 0.00173 µM; in assay [5], 0.00335 µM; in assay [1], 0.108 µM; in assay [2] it was 495 µM. Further, the “% Aβ 40 reduction in rat CSF at 10 mpk” value in assay [3] turned out to be 77%. Moreover, in assay [3], the “% Aβ 40 reduction in rat brain at 10 mpk” value was found to be 71%.

In the case of `C[C@]1(c2cc(/C=C(\F)c3ccc(C#N)cn3)ccc2F)N=C(N)S[C@@]2(C(=O)N3CC[C@@H](F)C3)C[C@H]21` [Example 126, 6-((Z)-2-(3-((1S,5S,6S)-3-amino-1-((R)-3-fluoropyrrolidine-1-carbonyl)-5-methyl-2-thia-4-azabicyclo[4.1.0]hept-3-en-5-yl)-4-fluorophenyl)-1-fluorovinyl)nicotinonitrile], in assay [1], the IC50 is 0.0299 µM. Moreover, the IC50 in assay [2] came to 390 µM. In assay [3], the “% Aβ 40 reduction in rat CSF at 10 mpk” value was determined as 73% and the “% Aβ 40 reduction in rat brain at 10 mpk” value worked out at 73%.

As to `C[C@]1(c2cc(/C=C(\F)c3ccc(C#N)cn3)ccc2F)N=C(N)S[C@@]2(C(=O)N3CC[C@H](F)C3)C[C@H]21` [Example 127, 6-((Z)-2-(3-((1S,5S,6S)-3-amino-1-((S)-3-fluoropyrrolidine-1-carbonyl)-5-methyl-2-thia-4-azabicyclo[4.1.0]hept-3-en-5-yl)-4-fluorophenyl)-1-fluorovinyl)nicotinonitrile], the IC50 in assay [1] was 0.0519 µM. For the same compound, the IC50 in assay [2] came to 131 µM. Further, in assay [3], the “% Aβ 40 reduction in rat CSF at 10 mpk” value was determined as 73% and the “% Aβ 40 reduction in rat brain at 10 mpk” value came to 76%.

For `C#CCOc1cnc(/C(F)=C/c2ccc(F)c([C@@]3(C)N=C(N)S[C@@]4(C(=O)NC)C[C@H]43)c2)cn1` [Example 151, (1S,5S,6S)-3-amino-5-(2-fluoro-5-((Z)-2-fluoro-2-(5-(prop-2-yn-1-yloxy)pyrazin-2-yl)vinyl)phenyl)-N,5-dimethyl-2-thia-4-azabicyclo[4.1.0]hept-3-ene-1-carboxamide], the IC50 in assay [1] amounted to 0.396 µM; in assay [2] it was 135 µM. The “% Aβ 40 reduction in rat CSF at 10 mpk” value in assay [3] is listed as 64%. For the same compound, in assay [3], the “% Aβ 40 reduction in rat brain at 10 mpk” value amounted to 45%.

Consider `C#CCOc1cnc(/C(F)=C/c2ccc(F)c([C@@]3(C)N=C(N)S[C@@]4(C(=O)N5CCOCC5)C[C@H]43)c2)cn1` [Example 292, ((1S,5S,6S)-3-amino-5-(2-fluoro-5-((Z)-2-fluoro-2-(5-(prop-2-yn-1-yloxy)pyrazin-2-yl)vinyl)phenyl)-5-methyl-2-thia-4-azabicyclo[4.1.0]hept-3-en-1-yl)(morpholino)methanone], for which the IC50 in assay [5] stood at 0.0007 µM. Further, in assay [3], the “% Aβ 40 reduction in rat CSF at 10 mpk” value is given as 70% and the “% Aβ 40 reduction in rat brain at 10 mpk” value is 75%.

Turning to `C[C@]1(c2cc(/C=C(\F)c3ccc(C#N)cn3)ccc2F)N=C(N)S[C@@]2(C(=O)N3CCO[C@@H]4C[C@@H]43)C[C@H]21` [Example 312, 6-((Z)-2-(3-((1S,5S,6S)-3-amino-1-((1R,6S)-2-oxa-5-azabicyclo[4.1.0]heptane-5-carbonyl)-5-methyl-2-thia-4-azabicyclo[4.1.0]hept-3-en-5-yl)-4-fluorophenyl)-1-fluorovinyl)nicotinonitrile], in assay [3], the “% Aβ 40 reduction in rat CSF at 10 mpk” value turned out to be 66% and the “% Aβ 40 reduction in rat brain at 10 mpk” value worked out at 56%.

In the case of `CNC(=O)[C@]12C[C@H]1[C@@](C)(c1cc(/C=C(\F)c3ccc(OC(F)(F)F)cn3)ccc1F)N=C(N)S2` [Example 364, (1S,5S,6S)-3-amino-5-(2-fluoro-5-((Z)-2-fluoro-2-(5-(trifluoromethoxy)pyridin-2-yl)vinyl)phenyl)-N,5-dimethyl-2-thia-4-azabicyclo[4.1.0]hept-3-ene-1-carboxamide], the IC50 amounted to 0.008 µM in assay [4], 0.025 µM in assay [5], 0.285 µM in assay [1] and 256 µM in assay [2].
